For 80 compounds, RP-LC retention time results are on record in the METLIN SMRT retention time set (Domingo-Almenara et al. 2019).

Each structure is given as a SMILES string.

A short description of this data set: gradient 5% acetonitrile 3 min, to 50% in 2 min, to 85% in 15 min, held 3 min, 100 µL/min. The following applies: column: Zorbax Extend-C18 2.1 x 50 mm; eluents: water / acetonitrile, 0.1% formic acid. The method, boiled down:
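Retention times come from adduct peaks that were picked computationally and then checked by hand. The standards, pure and pooled in mixtures of ~100 molecules, were run on a Zorbax Extend-C18 column (2.1 × 50 mm, 1.8 μm) at 100 μL/min with water and acetonitrile, each with 0.1% formic acid. Detection was by quadrupole time-of-flight mass spectrometry in positive and negative ionization mode, with a dead volume of 40 μL and a dwell volume of 900 μL.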
For the compound `CC1CCC(Nc2c(-c3cccc(F)c3)nc3ncccn23)CC1` (stereo not given), the RP-LC retention time came out at 905 s.
As to `O=C(NCCc1ccccc1)c1cc2sccc2n1Cc1ccc(Cl)cc1`, the RP-LC retention time came to 1210 s.
Take `CC1Oc2ccc(-c3csc(NC(=O)c4cccc(F)c4)n3)cc2N(C)C1=O` (stereo not given): the RP-LC retention time turned out to be 943 s.
The result for `COc1ccccc1CC(=O)N1CCCC1c1cc(C(C)C)on1` (stereo not given) reads 902 s; that for `O=C(NCc1nc(-c2ccc(NS(=O)(=O)c3ccc(Cl)cc3)cc2)no1)c1cccs1`, 909 s; that for `CC(C)N1CCn2c(nc3cc(C(=O)NCc4ccccc4Br)ccc32)C1=O`, 731 s.
The compound `COc1ccc(CCNC[C@H](O)c2ccc(O)cc2)cc1OC` yielded an RP-LC retention time of 656 s.
`Cn1c(=O)c2nc(S(=O)(=O)CCC(=O)Nc3ccc(F)c(F)c3)n(C)c2n(C)c1=O` gave an RP-LC retention time of 758 s.
The result for `Cc1ccccc1-c1noc(C2CCCN2C(=O)CNS(=O)(=O)c2ccc(Cl)cc2)n1` (stereo not given) reads 1020 s; that for `COC(=O)c1cccc(NC(=O)Cn2c(C)cc(-c3nnc(C4CCC4)o3)c2C)c1`, 882 s.
The result for `Cn1cnc(S(=O)(=O)N2CCC(C(=O)Nc3cccc(Cl)c3)CC2)c1` reads 753 s.
`COc1cc(NC(=O)C2CCCN2S(=O)(=O)c2ccc3c(c2)CC(C)N3C(C)=O)cc(OC)c1` (stereo not given) had an RP-LC retention time of 844 s.
The result for `COc1ccc(Cl)cc1NC(=O)Cn1nc(N2CCSCC2)c2ccccc2c1=O` reads 1080 s; that for `CCNc1cc(N2CCC(CCC(=O)NCc3ccccc3F)CC2)ncn1`, 646 s.
The result for `CN1C(=O)c2ccccc2C(C(=O)NCCN(Cc2ccco2)C2CCCC2)C1c1cccs1` (stereo not given) reads 674 s; that for `CCCNC(=O)c1cc2c(s1)N(C)CCC2`, 771 s; that for `COc1cc(Cl)c(NC(=O)C2CCCN(c3nccnc3Sc3ccc(C)cc3)C2)c(OC)c1` (stereo not given), 1260 s.
In the case of `Cc1ccc(CNC(=O)N2CCCC(Cn3cnc4cccnc43)C2)cc1` (stereo not given) it was 676 s.
`COc1ccc2c(c1)C1(CCN(C(=O)NC(C)(C)C)C1)C(=O)N2C` (stereo not given) came in with an RP-LC retention time of 753 s.
The compound `COC1CCOC2(CCN(C(=O)c3ccco3)CC2)C1` (stereo not given) gave an RP-LC retention time of 645 s.
Consider `Cc1ccccc1CCNC(=O)c1cc2n(n1)CC(C)(C(=O)NCc1ccc(F)cc1)N(C)C2=O` (stereo not given), for which the RP-LC retention time is 821 s.
In the case of `Cc1cc(C)c(C(=O)N2CCC(CC(=O)NCc3ccccc3C)CC2)[nH]1` it was 794 s; in that of `Cc1cc(N2CCOCC2)nc(N2CCN(C(=O)CCC3CCCCC3)CC2)n1`, 714 s; in that of `CCc1ccccc1NC(=O)Cn1c(N)nc(CC)c(C)c1=O`, 633 s.
In turn, `CC(C)NC(=O)c1cccnc1N1CCSCC1` yielded an RP-LC retention time of 662 s.
Take `O=c1ccc(-c2ccccc2)nn1CCc1nc(-c2ccc(Cl)cc2)no1`: the RP-LC retention time amounted to 1040 s.
In the case of `Cn1cc(CC(=O)NCC2CCCCC2)c2cccnc21` it was 734 s.
The result for `Cc1ccn2c(NC(=O)/C=C/c3ccccc3)c(-c3ccccc3)nc2c1` reads 703 s.
`CO[C@H]1C(=O)N(C(C)C)[C@H]1C1CCN(S(=O)(=O)c2cccc3cccnc23)CC1` showed an RP-LC retention time of 775 s.
`CCN1C(=O)c2cccnc2Sc2cc(NC(=O)c3ccc(Cl)s3)ccc21` came in with an RP-LC retention time of 932 s.
In the case of `Cc1ccc(-c2nc(C)cc3nn(CC(=O)Nc4cccc(Br)c4)c(=O)n23)cc1`, the RP-LC retention time worked out at 953 s.
Take `Cc1ccc(S(=O)(=O)N2CCCC2CNC(=O)c2ccc(F)c(F)c2)cc1` (stereo not given): the RP-LC retention time was found to be 896 s.
In the case of `CCCOc1ccc(CN2CCC3(CCC3O)CC2)cc1OC` (stereo not given) it was 629 s; in that of `CC(=O)N(Cc1nn(C)c2c1CN(S(=O)(=O)c1ccccc1)CC2)c1ccccc1`, 766 s; in that of `CN1C(=O)NC2(CCN(S(=O)(=O)c3cccs3)CC2)C1=O`, 640 s.
Compound `Nc1nnc(C2CC(=O)N(c3ccccc3)C2)o1` (stereo not given) had an RP-LC retention time of 570 s.
In the case of `O=C(CCC(=O)N1CC(n2cnnc2C2CCOCC2)C1)N1CCOCC1` it was 550 s; in that of `CC1CCN(S(=O)(=O)c2cccn(CC#N)c2=O)CC1`, 749 s.
The result for `Cc1cc2c(c(=O)n(-c3ccc(F)cc3)c(=O)n2CC(=O)Nc2cccc(Br)c2)n1C` reads 861 s; that for `Cn1nc(C(=O)N2CCCC2)c2c1CCN(C(=O)Nc1ccccc1)C2`, 704 s; that for `O=C(NCCc1nc2cccnc2n1C1CCCC1)NCc1ccco1`, 652 s.
The result for `Clc1ccc(Cc2nc3nc4c(c(N5CCN(c6ccccn6)CC5)n3n2)CCCC4)cc1` reads 718 s; that for `Cc1nn(-c2ccccc2)c2c1N(CCCC(=O)NCCC(C)C)C(=O)CS2`, 657 s.
In turn, `Cc1ccc(N2C(=O)C3N=NN(Cc4nc(-c5ccc6c(c5)OCO6)no4)C3C2=O)cc1` (stereo not given) came in with an RP-LC retention time of 957 s.
Take `O=C(Cn1cc(-c2nc(-c3ccc(Cl)cc3)no2)ccc1=O)Nc1ccc2c(c1)OCO2`: the RP-LC retention time worked out at 986 s.
In the case of `O=C(NC1CCN(c2ccc(F)cc2)C1=O)c1ccc(F)c(Cl)c1` (stereo not given) it was 877 s; in that of `O=C(Cn1cnc2c(sc3nc(-c4ccccc4)ccc32)c1=O)NCc1ccc(Cl)cc1`, 1070 s; in that of `CN(CCc1ccccn1)C(=O)c1cccc(N2CCNC(c3ccccc3)C2)n1` (stereo not given), 555 s.
As for `O=C(CSc1ncnc2c1nnn2-c1cccc(Cl)c1)NCC1CCCO1` (stereo not given), the RP-LC retention time turned out to be 820 s.
The result for `O=C(NCc1ccc(Cl)cc1)c1ccc2c(c1)N(CC(=O)N1CCCC1)C(=O)CO2` reads 768 s; that for `CN(C)c1ccc(/C=C2\CCc3ccccc3C2=O)cc1Br`, 1260 s; that for `O=C(Nc1ccc(C(=O)NCCCN2CCN(C3CCCCC3)CC2)cc1)C1=CSCCO1`, 579 s.
Consider `O=C(CN1c2ccc(F)cc2-c2ccccc2S1(=O)=O)Nc1ccc(F)cc1`, for which the RP-LC retention time is 948 s.
The result for `O=C(NCc1ccc(Cl)cc1)c1cn2c(n1)CCCC2` reads 621 s.
`COCc1noc(CC2CCOC3(CCN(C(=O)NC4CCCCC4)CC3)C2)n1` (stereo not given) displayed an RP-LC retention time of 758 s.
In the case of `COc1ccc(C(=O)NCc2nnc(SCC(=O)N3CCCc4ccccc43)o2)cc1` it was 677 s.
The result for `COc1ccccc1NS(=O)(=O)c1cc(-c2cc(C(F)(F)F)on2)sc1C` reads 1110 s; that for `CC(C)NC(=O)c1ccc2c(c1)CCCN2S(C)(=O)=O`, 717 s; that for `COc1cc(F)ccc1-c1ccnc2nc(Cc3ccc(F)cc3)nn12`, 905 s.
As for `CCOc1ccccc1-c1noc(Cn2c(=O)n(CC3CCCO3)c(=O)c3ccccc32)n1` (stereo not given), the RP-LC retention time was determined as 966 s.
The compound `O=S(=O)(c1ccccc1Cl)N1CCc2nc(-c3ccc(Cl)cc3)ncc2C1` yielded an RP-LC retention time of 1180 s.
Turning to `O=C1COc2cc(S(=O)(=O)N3CCC(C(=O)NC4CCCC4)CC3)c(Cl)cc2N1`, the RP-LC retention time was 735 s.
The result for `Cc1noc(-c2nn(C)c3c2CN(C(=O)C2CCCO2)CC3)n1` (stereo not given) reads 600 s.
As for `CCn1c(=O)c(N2CCC(NC(=O)Nc3ccccc3Br)CC2)nc2ccccc21`, the RP-LC retention time was found to be 1030 s.
In the case of `O=C(CSc1ccc(N2CCCC(C(=O)NC3CC3)C2)nn1)Nc1cc(F)cc(F)c1` (stereo not given) it was 680 s; in that of `CCOc1ccccc1NC(=O)N1CCCC1c1cc(C)on1` (stereo not given), 870 s.
As to `c1cc(-c2nc(-c3ccc4c(c3)nnn4CCN3CCCCC3)no2)co1`, the RP-LC retention time amounted to 642 s.
In the case of `CCN(CC)CCCn1c(C)cc2c(c1=O)C(c1ccccc1OC)C(C#N)=C(N)O2` (stereo not given) it was 626 s; in that of `Cn1c(=O)c2nc(SCCC(=O)Nc3ccc(N4CCOCC4)cc3)n(C)c2n(C)c1=O`, 620 s; in that of `CCOc1ccc(-c2noc(Cn3c(=O)n(C(C)C)c(=O)c4ccccc43)n2)cc1`, 1190 s.
In the case of `COc1cccc(-c2nc(-c3ccc4ncn(C(C)C)c4c3)no2)c1OC` it was 766 s; in that of `O=C(Cn1nc(C(=O)N2CCCCC2)c2ccccc21)Nc1nc2ccc(Cl)cc2s1`, 969 s; in that of `COc1ccc(CNC(=O)C2(C)CCCN(S(=O)(=O)c3cccc(C)c3)C2)cc1` (stereo not given), 935 s.
Compound `CCOc1ccc(CC(=O)N2CCCC2c2cc(C)on2)cc1` (stereo not given) yielded an RP-LC retention time of 822 s.
The result for `O=c1c(=O)n(-c2ccccc2)ccn1Cc1nc(-c2ccccc2)no1` reads 777 s; that for `COc1cc(C(=O)NCCc2c[nH]c3ccc(F)cc23)cc(OC)c1OC`, 781 s; that for `CCNC(=O)Nc1ccc2c(c1)CN(S(=O)(=O)CC)CCO2`, 660 s.
In the case of `Cc1cc(N2CCN(c3ccccn3)CC2)n2nc(-c3ccc(Cl)cc3)c(C)c2n1` it was 649 s; in that of `CCCSCCCNC(=O)Cn1c(=O)c(C)nc2cc(C)c(C)cc21`, 828 s; in that of `CCN1c2ccccc2C(=O)NC12CCN(C(=O)NCc1cccc(F)c1)CC2`, 740 s.
